Data published in PMC9506414, “Novel 2,6,9-Trisubstituted Purines as Potent CDK Inhibitors Alleviating Trastuzumab-Resistance of HER2-Positive Breast Cancers” (Pharmaceuticals, 2022).

What was measured:
Test in all cases: Kinome-wide inhibition profiling
Type in all cases: biochemical
ABL1 = biological target: T1, ABL1 (Homo sapiens, UniProt P00519)
T1 construct: purchased Reaction Biology Corp
Procedure: (§1) In vitro CDK12/cyclinK assays for all compounds and in vitro kinome-wide inhibition profiling of 30d at 10 μM were performed by a CRO company (Reaction Biology Corp., San Diego, CA, USA).

ACVR1 = biological target: T2, ACVR1 (Homo sapiens, UniProt Q04771)
T2 construct: purchased Reaction Biology Corp
T2 sequence (Q04771 21-509): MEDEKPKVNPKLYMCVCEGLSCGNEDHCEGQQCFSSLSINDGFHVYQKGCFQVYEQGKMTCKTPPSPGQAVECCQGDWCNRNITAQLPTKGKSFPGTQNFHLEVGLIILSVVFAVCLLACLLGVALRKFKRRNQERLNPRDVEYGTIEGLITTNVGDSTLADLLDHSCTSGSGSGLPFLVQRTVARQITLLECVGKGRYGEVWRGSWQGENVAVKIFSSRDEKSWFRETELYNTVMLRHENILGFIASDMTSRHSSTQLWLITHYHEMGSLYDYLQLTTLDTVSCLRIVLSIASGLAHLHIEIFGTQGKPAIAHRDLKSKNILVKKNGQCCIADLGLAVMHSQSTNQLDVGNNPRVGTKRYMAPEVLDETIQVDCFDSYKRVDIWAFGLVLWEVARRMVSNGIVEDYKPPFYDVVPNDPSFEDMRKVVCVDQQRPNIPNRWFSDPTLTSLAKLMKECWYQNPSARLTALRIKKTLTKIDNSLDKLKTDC
Procedure: as §1

AKT1 = biological target: T3, AKT1 (Homo sapiens, UniProt P31749)
T3 construct: purchased Reaction Biology Corp
Procedure: as §1

BMPR1A = biological target: T4, BMPR1A (Homo sapiens, UniProt P36894)
T4 construct: purchased Reaction Biology Corp
Procedure: as §1

BMPR2 = biological target: T5, BMPR2 (Homo sapiens, UniProt Q13873)
T5 construct: purchased Reaction Biology Corp
Procedure: as §1

CAMK2a = biological target: T6, CAMK2a (Homo sapiens, UniProt Q9UQM7)
T6 construct: purchased Reaction Biology Corp
Procedure: as §1

CAMK2d = biological target: T7, CAMK2d (Homo sapiens, UniProt Q13557)
T7 construct: purchased Reaction Biology Corp
T7 sequence (Q13557 whole entry): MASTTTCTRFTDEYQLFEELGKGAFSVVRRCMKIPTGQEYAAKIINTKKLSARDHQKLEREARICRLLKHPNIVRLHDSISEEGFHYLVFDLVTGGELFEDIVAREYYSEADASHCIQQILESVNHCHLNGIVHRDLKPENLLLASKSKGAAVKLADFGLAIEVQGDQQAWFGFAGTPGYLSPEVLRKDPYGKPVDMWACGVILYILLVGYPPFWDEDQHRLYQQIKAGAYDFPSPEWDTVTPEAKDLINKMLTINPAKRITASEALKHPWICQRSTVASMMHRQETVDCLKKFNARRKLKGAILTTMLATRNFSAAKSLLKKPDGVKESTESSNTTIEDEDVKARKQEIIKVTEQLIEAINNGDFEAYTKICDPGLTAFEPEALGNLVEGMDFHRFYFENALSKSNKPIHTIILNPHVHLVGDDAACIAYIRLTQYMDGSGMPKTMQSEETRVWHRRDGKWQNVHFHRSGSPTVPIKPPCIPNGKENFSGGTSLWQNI
Procedure: as §1

CDK5/p35 = biological target: T8, CDK5/p35 (Homo sapiens, UniProt Q00535)
T8 construct: purchased Reaction Biology Corp
T8 sequence (Q00535 whole entry): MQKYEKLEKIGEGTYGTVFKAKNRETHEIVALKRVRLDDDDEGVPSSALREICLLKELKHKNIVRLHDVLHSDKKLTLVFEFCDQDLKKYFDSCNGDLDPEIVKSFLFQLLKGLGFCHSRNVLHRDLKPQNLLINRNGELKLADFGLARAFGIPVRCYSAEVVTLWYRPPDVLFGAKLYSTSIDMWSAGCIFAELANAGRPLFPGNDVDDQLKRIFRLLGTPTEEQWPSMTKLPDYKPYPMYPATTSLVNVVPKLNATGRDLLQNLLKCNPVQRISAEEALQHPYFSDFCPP
T8 sequence (Q15078 whole entry partner): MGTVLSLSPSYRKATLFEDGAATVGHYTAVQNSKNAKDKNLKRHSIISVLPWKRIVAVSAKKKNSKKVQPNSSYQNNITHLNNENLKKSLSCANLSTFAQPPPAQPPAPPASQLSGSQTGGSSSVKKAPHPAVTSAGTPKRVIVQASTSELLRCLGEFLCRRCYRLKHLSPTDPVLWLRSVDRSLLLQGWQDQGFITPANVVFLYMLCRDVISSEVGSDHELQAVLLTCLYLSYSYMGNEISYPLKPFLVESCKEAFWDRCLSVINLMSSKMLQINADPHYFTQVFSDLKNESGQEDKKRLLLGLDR
Procedure: as §1

CDK7/cyclinH = biological target: T9, CDK7/cyclinH (Homo sapiens, UniProt P50613)
T9 construct: purchased Reaction Biology Corp
T9 sequence (P50613 whole entry): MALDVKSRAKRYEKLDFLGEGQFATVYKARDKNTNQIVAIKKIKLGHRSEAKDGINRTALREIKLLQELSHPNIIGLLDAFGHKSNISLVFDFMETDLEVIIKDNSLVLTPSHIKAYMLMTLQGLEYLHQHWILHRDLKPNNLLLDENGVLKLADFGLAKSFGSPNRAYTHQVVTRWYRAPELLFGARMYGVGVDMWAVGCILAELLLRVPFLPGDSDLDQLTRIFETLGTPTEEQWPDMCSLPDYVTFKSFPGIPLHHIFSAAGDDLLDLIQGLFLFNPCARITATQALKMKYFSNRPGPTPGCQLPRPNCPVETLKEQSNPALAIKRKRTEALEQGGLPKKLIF
T9 sequence (P51946 whole entry partner): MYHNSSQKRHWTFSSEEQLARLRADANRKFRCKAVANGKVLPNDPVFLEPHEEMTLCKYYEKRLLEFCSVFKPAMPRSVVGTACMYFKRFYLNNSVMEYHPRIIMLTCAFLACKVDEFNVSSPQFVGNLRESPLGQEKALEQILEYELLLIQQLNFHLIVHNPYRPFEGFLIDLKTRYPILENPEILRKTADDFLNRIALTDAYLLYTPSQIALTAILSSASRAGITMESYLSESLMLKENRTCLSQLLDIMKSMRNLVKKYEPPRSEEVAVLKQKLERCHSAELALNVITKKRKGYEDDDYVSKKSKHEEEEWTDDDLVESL
T9 sequence (P51948 whole entry partner): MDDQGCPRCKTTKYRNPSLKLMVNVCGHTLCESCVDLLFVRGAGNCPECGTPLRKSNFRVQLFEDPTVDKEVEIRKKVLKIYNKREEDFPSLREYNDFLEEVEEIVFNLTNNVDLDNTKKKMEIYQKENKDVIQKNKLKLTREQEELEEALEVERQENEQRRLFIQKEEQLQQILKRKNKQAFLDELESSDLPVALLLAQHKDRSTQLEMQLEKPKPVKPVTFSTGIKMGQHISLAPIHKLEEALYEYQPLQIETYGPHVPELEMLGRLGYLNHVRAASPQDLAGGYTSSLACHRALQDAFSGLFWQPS
Procedure: as §1

CSNK2A2 = biological target: T10, CSNK2A2 (Homo sapiens, UniProt P19784)
T10 construct: purchased Reaction Biology Corp
T10 sequence (P19784 whole entry): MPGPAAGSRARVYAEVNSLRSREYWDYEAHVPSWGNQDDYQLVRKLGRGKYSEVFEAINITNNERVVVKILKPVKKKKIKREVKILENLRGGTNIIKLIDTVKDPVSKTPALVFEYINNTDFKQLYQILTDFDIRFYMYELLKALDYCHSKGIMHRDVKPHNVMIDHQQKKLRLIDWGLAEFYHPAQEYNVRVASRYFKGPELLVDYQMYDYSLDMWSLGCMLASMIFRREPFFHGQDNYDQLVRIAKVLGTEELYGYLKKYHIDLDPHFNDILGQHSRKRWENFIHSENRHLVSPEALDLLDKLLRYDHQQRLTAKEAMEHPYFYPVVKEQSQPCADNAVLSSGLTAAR
Procedure: as §1

DRAK1 = biological target: T11, DRAK1 (Homo sapiens, UniProt Q9UEE5)
T11 construct: purchased Reaction Biology Corp
Procedure: as §1

DYRK2 = biological target: T12, DYRK2 (Homo sapiens, UniProt Q92630)
T12 construct: purchased Reaction Biology Corp
Procedure: as §1

EPHA4 = biological target: T13, EPHA4 (Homo sapiens, UniProt P54764)
T13 construct: purchased Reaction Biology Corp
T13 sequence (P54764 20-986): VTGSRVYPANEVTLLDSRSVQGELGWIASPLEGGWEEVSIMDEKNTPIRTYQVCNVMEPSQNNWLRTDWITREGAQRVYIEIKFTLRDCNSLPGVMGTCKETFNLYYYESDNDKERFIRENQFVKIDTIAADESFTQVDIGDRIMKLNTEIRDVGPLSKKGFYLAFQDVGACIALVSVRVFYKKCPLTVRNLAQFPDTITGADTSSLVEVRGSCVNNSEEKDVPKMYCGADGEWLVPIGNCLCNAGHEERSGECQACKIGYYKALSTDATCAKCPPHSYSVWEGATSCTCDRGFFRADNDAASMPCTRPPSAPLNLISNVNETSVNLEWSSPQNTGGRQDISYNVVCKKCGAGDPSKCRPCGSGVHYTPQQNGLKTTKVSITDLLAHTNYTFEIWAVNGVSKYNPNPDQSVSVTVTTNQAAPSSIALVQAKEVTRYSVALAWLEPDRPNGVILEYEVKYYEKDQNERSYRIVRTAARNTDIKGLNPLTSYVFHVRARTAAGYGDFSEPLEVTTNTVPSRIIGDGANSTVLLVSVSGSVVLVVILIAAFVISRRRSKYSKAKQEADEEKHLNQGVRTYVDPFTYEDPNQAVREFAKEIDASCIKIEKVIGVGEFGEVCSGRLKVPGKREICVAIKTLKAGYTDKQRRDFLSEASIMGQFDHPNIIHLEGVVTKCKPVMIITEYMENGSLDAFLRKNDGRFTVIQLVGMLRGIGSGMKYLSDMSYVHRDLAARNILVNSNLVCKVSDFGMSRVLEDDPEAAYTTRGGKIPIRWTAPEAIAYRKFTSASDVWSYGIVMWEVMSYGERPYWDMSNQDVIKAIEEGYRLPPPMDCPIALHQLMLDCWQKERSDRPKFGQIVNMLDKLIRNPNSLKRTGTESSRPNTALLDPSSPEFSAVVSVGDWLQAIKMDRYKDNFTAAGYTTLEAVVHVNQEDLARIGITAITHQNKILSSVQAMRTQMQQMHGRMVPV
Procedure: as §1

EPHB4 = biological target: T14, EPHB4 (Homo sapiens, UniProt P54760)
T14 construct: purchased Reaction Biology Corp
Procedure: as §1

FLT4 = biological target: T15, FLT4 (Homo sapiens, UniProt P35916)
T15 construct: purchased Reaction Biology Corp
Procedure: as §1

HPK1 = biological target: T16, HPK1 (Homo sapiens, UniProt Q92918)
T16 construct: purchased Reaction Biology Corp
Procedure: as §1

INSR = biological target: T17, INSR (Homo sapiens, UniProt P06213)
T17 construct: purchased Reaction Biology Corp
Procedure: as §1

ITK = biological target: T18, ITK (Homo sapiens, UniProt Q08881)
T18 construct: purchased Reaction Biology Corp
Procedure: as §1

JAK2 = biological target: T19, JAK2 (Homo sapiens, UniProt O60674)
T19 construct: purchased Reaction Biology Corp
Procedure: as §1

LYN = biological target: T20, LYN (Homo sapiens, UniProt P07948)
T20 construct: purchased Reaction Biology Corp
Procedure: as §1

MAP3K1 = biological target: T21, MAP3K1 (Homo sapiens, UniProt Q13233)
T21 construct: purchased Reaction Biology Corp
Procedure: as §1

MAP4K3 = biological target: T22, MAP4K3 (Homo sapiens, UniProt Q8IVH8)
T22 construct: purchased Reaction Biology Corp
Procedure: as §1

MEK2 = biological target: T23, MEK2 (Homo sapiens, UniProt P36507)
T23 construct: purchased Reaction Biology Corp
Procedure: as §1

MERTK = biological target: T24, MERTK (Homo sapiens, UniProt Q12866)
T24 construct: purchased Reaction Biology Corp
Procedure: as §1

MLK3 = biological target: T25, MLK3 (Homo sapiens, UniProt Q16584)
T25 construct: purchased Reaction Biology Corp
Procedure: as §1

MNK2 = biological target: T26, MNK2 (Homo sapiens, UniProt Q9HBH9)
T26 construct: purchased Reaction Biology Corp
Procedure: as §1

MST1R = biological target: T27, MST1R (Homo sapiens, UniProt Q04912)
T27 construct: purchased Reaction Biology Corp
Procedure: as §1

NDR2 = biological target: T28, NDR2 (Homo sapiens, UniProt Q9Y2H1)
T28 construct: purchased Reaction Biology Corp
Procedure: as §1

NEK5 = biological target: T29, NEK5 (Homo sapiens, UniProt Q6P3R8)
T29 construct: purchased Reaction Biology Corp
Procedure: as §1

PAK2 = biological target: T30, PAK2 (Homo sapiens, UniProt Q13177)
T30 construct: purchased Reaction Biology Corp
Procedure: as §1

PDGFRa = biological target: T31, PDGFRa (Homo sapiens, UniProt P16234)
T31 construct: purchased Reaction Biology Corp
T31 sequence (P16234 24-1089): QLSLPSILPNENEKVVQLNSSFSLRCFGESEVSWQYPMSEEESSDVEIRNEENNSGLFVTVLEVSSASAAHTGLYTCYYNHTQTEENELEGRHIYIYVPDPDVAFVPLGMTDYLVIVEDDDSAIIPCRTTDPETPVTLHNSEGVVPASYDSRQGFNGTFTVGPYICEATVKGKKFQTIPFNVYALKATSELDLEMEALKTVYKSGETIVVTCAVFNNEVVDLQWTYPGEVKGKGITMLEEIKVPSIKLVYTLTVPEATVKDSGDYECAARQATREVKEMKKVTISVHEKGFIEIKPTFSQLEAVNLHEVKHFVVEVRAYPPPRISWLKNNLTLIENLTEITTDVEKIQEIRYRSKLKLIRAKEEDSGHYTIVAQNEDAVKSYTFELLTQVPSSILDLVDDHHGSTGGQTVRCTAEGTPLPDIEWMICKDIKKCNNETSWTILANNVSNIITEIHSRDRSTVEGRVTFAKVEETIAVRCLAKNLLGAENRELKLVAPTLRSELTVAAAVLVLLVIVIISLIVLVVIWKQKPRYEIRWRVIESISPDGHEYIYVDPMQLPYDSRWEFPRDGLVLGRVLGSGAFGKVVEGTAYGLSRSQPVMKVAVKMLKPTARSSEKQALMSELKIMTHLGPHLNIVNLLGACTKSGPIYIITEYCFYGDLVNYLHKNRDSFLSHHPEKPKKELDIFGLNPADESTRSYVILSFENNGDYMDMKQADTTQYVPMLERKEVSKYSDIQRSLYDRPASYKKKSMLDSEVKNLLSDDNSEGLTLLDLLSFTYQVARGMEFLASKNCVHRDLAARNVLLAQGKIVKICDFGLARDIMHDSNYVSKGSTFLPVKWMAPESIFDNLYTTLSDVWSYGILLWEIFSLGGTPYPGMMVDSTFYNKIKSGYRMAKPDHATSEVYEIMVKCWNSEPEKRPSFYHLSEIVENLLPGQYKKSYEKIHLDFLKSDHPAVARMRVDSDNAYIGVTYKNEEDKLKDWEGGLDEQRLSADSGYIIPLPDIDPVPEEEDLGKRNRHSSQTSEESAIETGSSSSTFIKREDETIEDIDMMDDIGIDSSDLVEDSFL
Procedure: as §1

PDGFRb = biological target: T32, PDGFRb (Homo sapiens, UniProt P09619)
T32 construct: purchased Reaction Biology Corp
Procedure: as §1

PLK4 = biological target: T33, PLK4 (Homo sapiens, UniProt O00444)
T33 construct: purchased Reaction Biology Corp
Procedure: as §1

PRKCD = biological target: T34, PRKCD (Homo sapiens, UniProt Q05655)
T34 construct: purchased Reaction Biology Corp
Procedure: as §1

PRKD2 = biological target: T35, PRKD2 (Homo sapiens, UniProt Q9BZL6)
T35 construct: purchased Reaction Biology Corp
Procedure: as §1

RSK3 = biological target: T36, RSK3 (Homo sapiens, UniProt Q15349)
T36 construct: purchased Reaction Biology Corp
Procedure: as §1

TAOK1 = biological target: T37, TAOK1 (Homo sapiens, UniProt Q7L7X3)
T37 construct: purchased Reaction Biology Corp
Procedure: as §1

TRKB = biological target: T38, TRKB (Homo sapiens, UniProt Q16620)
T38 construct: purchased Reaction Biology Corp
Procedure: as §1

TSSK1B = biological target: T39, TSSK1B (Homo sapiens, UniProt Q9BXA7)
T39 construct: purchased Reaction Biology Corp
Procedure: as §1

ULK2 = biological target: T40, ULK2 (Homo sapiens, UniProt Q8IYT8)
T40 construct: purchased Reaction Biology Corp
Procedure: as §1

VEGFR2 = biological target: T41, VEGFR2 (Homo sapiens, UniProt P35968)
T41 construct: purchased Reaction Biology Corp
Procedure: as §1

VRK2 = biological target: T42, VRK2 (Homo sapiens, UniProt Q86Y07)
T42 construct: purchased Reaction Biology Corp
Procedure: as §1

WNK3 = biological target: T43, WNK3 (Homo sapiens, UniProt Q9BYP7)
T43 construct: purchased Reaction Biology Corp
Procedure: as §1

SMILES: CCn1cnc2c(NCc3ccc(-c4ccccn4)nc3)nc(-c3ccc(N)nc3)nc21 [Compound 30d, N-([2,2′-Bipyridin]-5-ylmethyl)-2-(6-aminopyridin-3-yl)-9-ethyl-9H-purin-6-amine]
- remaining activity at 10 µM (ABL1): 61.2%
- remaining activity at 10 µM (ACVR1): 118%
- remaining activity at 10 µM (AKT1): 94.9%
- remaining activity at 10 µM (BMPR1A): 126%
- remaining activity at 10 µM (BMPR2): 52.4%
- remaining activity at 10 µM (CAMK2a): 64%
- remaining activity at 10 µM (CAMK2d): 61.7%
- inhibition at 10 µM (CDK5/p35): > 95%
- remaining activity at 10 µM (CDK5/p35): 0.7%
- inhibition at 10 µM (CDK7/cyclinH): > 95%
- remaining activity at 10 µM (CDK7/cyclinH): 3.8%
- remaining activity at 10 µM (CSNK2A2): 91.3%
- remaining activity at 10 µM (DRAK1): 79.3%
- remaining activity at 10 µM (DYRK2): 22.3%
- inhibition at 10 µM (EPHA4): > 95%
- remaining activity at 10 µM (EPHA4): 3.6%
- remaining activity at 10 µM (EPHB4): 23.2%
- remaining activity at 10 µM (FLT4): 10%
- remaining activity at 10 µM (HPK1): 30.2%
- remaining activity at 10 µM (INSR): 65.1%
- remaining activity at 10 µM (ITK): 81.7%
- remaining activity at 10 µM (JAK2): 87%
- remaining activity at 10 µM (LYN): 65.7%
- remaining activity at 10 µM (MAP3K1): 87%
- remaining activity at 10 µM (MAP4K3): 49.6%
- remaining activity at 10 µM (MEK2): 176%
- remaining activity at 10 µM (MERTK): 71%
- remaining activity at 10 µM (MLK3): 51.4%
- remaining activity at 10 µM (MNK2): 91.2%
- remaining activity at 10 µM (MST1R): 86.8%
- remaining activity at 10 µM (NDR2): 36.9%
- remaining activity at 10 µM (NEK5): 83.8%
- remaining activity at 10 µM (PAK2): 46.7%
- remaining activity at 10 µM (PDGFRa): 52.8%
- remaining activity at 10 µM (PDGFRb): 34.7%
- remaining activity at 10 µM (PLK4): 83.4%
- remaining activity at 10 µM (PRKCD): 95.2%
- remaining activity at 10 µM (PRKD2): 72.3%
- remaining activity at 10 µM (RSK3): 58.1%
- remaining activity at 10 µM (TAOK1): 28.1%
- remaining activity at 10 µM (TRKB): 16.5%
- remaining activity at 10 µM (TSSK1B): 38%
- remaining activity at 10 µM (ULK2): 87.3%
- remaining activity at 10 µM (VEGFR2): 88.6%
- remaining activity at 10 µM (VRK2): 96.6%
- remaining activity at 10 µM (WNK3): 74.5%
